{"source": "PubChem BioAssay AID651630", "about": "(Sanford-Burnham Center for Chemical Genomics, 2012)", "key": {"[1]": {"tested_on": "DAPI", "experiment": "triacylglycerol accumulation inhibitor potency, dose response, cell-based, panel, Nile Red and DAPI fluorescence, H9c2 (AID 651630);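 further: cells exposed to compound overnight before fixation and staining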", "conditions": "H9c2 cells, DAPI nuclear fluorescence (cytotoxicity counter-readout), oleic acid"}, "[2]": {"tested_on": "TAG", "experiment": "triacylglycerol accumulation inhibitor potency, dose response, cell-based, panel, Nile Red and DAPI fluorescence, H9c2 (AID 651630)", "conditions": "H9c2 cells, Nile Red TAG fluorescence, oleic acid"}}, "note": "The source made the active and inactive calls.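 How the source made its calls: active means lipid-stain IC50 at or below a set limit, with nuclear-stain toxicity IC50 at least five times higher; inactive means the rest.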"}
{"smiles": "CCOC(=O)CSc1cccc2cccnc12", "values": [{"measurement": "IC50 cytotoxicity (DAPI nuclear signal decrease)", "setting": "[1]; mean of runs", "result": "> 25 µM (inactive)"}, {"measurement": "IC50 cytotoxicity (DAPI nuclear signal decrease)", "setting": "[1]; run 1", "result": "> 25", "unit": "µM"}, {"measurement": "IC50 cytotoxicity (DAPI nuclear signal decrease)", "setting": "[1]; run 2", "result": "> 25", "unit": "µM"}, {"measurement": "IC50", "setting": "[2]; mean of runs", "result": "> 25 µM (inactive)"}, {"measurement": "IC50", "setting": "[2]; run 1", "result": "> 25", "unit": "µM"}, {"measurement": "IC50", "setting": "[2]; run 2", "result": "> 25", "unit": "µM"}]}
{"smiles": "CC(C)C[C@H]1C(=O)N2CCC[C@H]2[C@]2(O)O[C@](NC(=O)[C@@H]3C=C4c5cccc6[nH]c(Br)c(c56)CC4N(C)C3)(C(C)C)C(=O)N12", "note": "(some centres not stated)", "values": [{"measurement": "IC50 cytotoxicity (DAPI nuclear signal decrease)", "setting": "[1]; mean of runs", "result": "> 25 µM (inactive)"}, {"measurement": "IC50 cytotoxicity (DAPI nuclear signal decrease)", "setting": "[1]; run 1", "result": "> 25", "unit": "µM"}, {"measurement": "IC50 cytotoxicity (DAPI nuclear signal decrease)", "setting": "[1]; run 2", "result": "> 25", "unit": "µM"}, {"measurement": "IC50", "setting": "[2]; mean of runs", "result": 6.72, "unit": "µM"}, {"measurement": "IC50", "setting": "[2]; run 1", "result": 6.96, "unit": "µM"}, {"measurement": "IC50", "setting": "[2]; run 2", "result": 6.47, "unit": "µM"}]}
{"smiles": "O=C(C[C@H]1C[C@H](C(=O)N2CCOCC2)[C@@]2(CCC3CCCC3)c3[nH]c4ccc(Cl)cc4c3CCN2C1=O)NCC12CC3CC(CC(C3)C1)C2", "values": [{"measurement": "IC50 cytotoxicity (DAPI nuclear signal decrease)", "setting": "[1]; mean of runs", "result": "> 25 µM (inactive)"}, {"measurement": "IC50 cytotoxicity (DAPI nuclear signal decrease)", "setting": "[1]; run 1", "result": "> 25", "unit": "µM"}, {"measurement": "IC50 cytotoxicity (DAPI nuclear signal decrease)", "setting": "[1]; run 2", "result": "> 25", "unit": "µM"}, {"measurement": "IC50", "setting": "[2]; mean of runs", "result": "> 25 µM (inactive)"}, {"measurement": "IC50", "setting": "[2]; run 1", "result": "> 25", "unit": "µM"}, {"measurement": "IC50", "setting": "[2]; run 2", "result": "> 25", "unit": "µM"}]}
{"smiles": "CC(=O)Nc1ccc(NC2=Nc3ccccc3N3C2=Nc2c(c(C)nn2-c2ccccc2)C3c2ccccc2)cc1", "note": "(configuration not stated)", "values": [{"measurement": "IC50 cytotoxicity (DAPI nuclear signal decrease)", "setting": "[1]; mean of runs", "result": "> 25 µM (inactive)"}, {"measurement": "IC50 cytotoxicity (DAPI nuclear signal decrease)", "setting": "[1]; run 1", "result": "> 25", "unit": "µM"}, {"measurement": "IC50 cytotoxicity (DAPI nuclear signal decrease)", "setting": "[1]; run 2", "result": "> 25", "unit": "µM"}, {"measurement": "IC50", "setting": "[2]; mean of runs", "result": "> 25 µM (inactive)"}, {"measurement": "IC50", "setting": "[2]; run 1", "result": "> 25", "unit": "µM"}, {"measurement": "IC50", "setting": "[2]; run 2", "result": "> 25", "unit": "µM"}]}
{"smiles": "CC(C)CN(C#N)c1nc(N2CCOCC2)nc(N2CCOCC2)n1", "values": [{"measurement": "IC50 cytotoxicity (DAPI nuclear signal decrease)", "setting": "[1]; mean of runs", "result": "> 25 µM (inactive)"}, {"measurement": "IC50 cytotoxicity (DAPI nuclear signal decrease)", "setting": "[1]; run 1", "result": "> 25", "unit": "µM"}, {"measurement": "IC50 cytotoxicity (DAPI nuclear signal decrease)", "setting": "[1]; run 2", "result": "> 25", "unit": "µM"}, {"measurement": "IC50", "setting": "[2]; mean of runs", "result": "20.5 µM (inactive)"}, {"measurement": "IC50", "setting": "[2]; run 1", "result": 19.4, "unit": "µM"}, {"measurement": "IC50", "setting": "[2]; run 2", "result": 21.5, "unit": "µM"}]}
{"smiles": "CC1(c2ccccc2)CC(C)(C)N(C(=O)c2cc([N+](=O)[O-])cc([N+](=O)[O-])c2)c2ccccc21", "note": "(configuration not stated)", "values": [{"measurement": "IC50 cytotoxicity (DAPI nuclear signal decrease)", "setting": "[1]; mean of runs", "result": "> 25 µM (inactive)"}, {"measurement": "IC50 cytotoxicity (DAPI nuclear signal decrease)", "setting": "[1]; run 1", "result": "> 25", "unit": "µM"}, {"measurement": "IC50 cytotoxicity (DAPI nuclear signal decrease)", "setting": "[1]; run 2", "result": "> 25", "unit": "µM"}, {"measurement": "IC50", "setting": "[2]; mean of runs", "result": 9.21, "unit": "µM"}, {"measurement": "IC50", "setting": "[2]; run 1", "result": 10.4, "unit": "µM"}, {"measurement": "IC50", "setting": "[2]; run 2", "result": 7.99, "unit": "µM"}]}
{"smiles": "CC(C)=CCC/C(C)=C/CNC(=O)C[C@H]1C[C@H](C(=O)N2CCCCC2)[C@@]2(CCc3ccccc3)c3[nH]c4cc(-c5ccco5)ccc4c3CCN2C1=O", "values": [{"measurement": "IC50 cytotoxicity (DAPI nuclear signal decrease)", "setting": "[1]; mean of runs", "result": "> 25 µM (inactive)"}, {"measurement": "IC50 cytotoxicity (DAPI nuclear signal decrease)", "setting": "[1]; run 1", "result": "> 25", "unit": "µM"}, {"measurement": "IC50 cytotoxicity (DAPI nuclear signal decrease)", "setting": "[1]; run 2", "result": "> 25", "unit": "µM"}, {"measurement": "IC50", "setting": "[2]; mean of runs", "result": 9.94, "unit": "µM"}, {"measurement": "IC50", "setting": "[2]; run 1", "result": 10.5, "unit": "µM"}, {"measurement": "IC50", "setting": "[2]; run 2", "result": 9.42, "unit": "µM"}]}
